Results published in PubChem BioAssay AID328 (DTP/NCI, 2004).
Where “and” joins values, the source holds several entries; their conditions need not be identical. Identical values can stand only once. Toxic doses and inconclusive results are not listed.

Tested on: BDF1 mice, P388 leukemia ip, median survival T/C
Assay: NCI In Vivo Anticancer Drug Screen. Data for tumor model P388 Leukemia (intraperitoneal) in B6D2F1 (BDF1) mice
Conditions: endpoint: median survival time, higher = longer survival
Outline: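 Transplantable tumour in mice; compound vs vehicle dosing; survival scored; ratio of treated to control reported.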

[1] = dose: 50.0 mg/kg/injection, schedule: Q01DX009 (ip), vehicle: saline
[2] = dose: 100.0 mg/kg/injection, schedule: Q01DX009 (ip), vehicle: saline
[3] = dose: 200.0 mg/kg/injection, schedule: Q01DX009 (ip), vehicle: saline
[4] = dose: 400.0 mg/kg/injection, schedule: Q01DX009 (ip), vehicle: saline
[5] = dose: 12.5 mg/kg/injection, schedule: Q01DX009 (ip), vehicle: saline with Tween-80
[6] = dose: 12.5 mg/kg/injection, schedule: Q04DX003 (ip), vehicle: saline with Tween-80
[7] = dose: 25.0 mg/kg/injection, schedule: Q01DX009 (ip), vehicle: saline with Tween-80
[8] = dose: 25.0 mg/kg/injection, schedule: Q04DX003 (ip), vehicle: saline with Tween-80
[9] = dose: 50.0 mg/kg/injection, schedule: Q04DX003 (ip), vehicle: saline with Tween-80
[10] = dose: 100.0 mg/kg/injection, schedule: Q04DX003 (ip), vehicle: saline with Tween-80
[11] = dose: 200.0 mg/kg/injection, schedule: Q04DX003 (ip), vehicle: saline with Tween-80
[12] = dose: 400.0 mg/kg/injection, schedule: Q04DX003 (ip), vehicle: saline with Tween-80
[13] = dose: 50.0 mg/kg/injection, schedule: Q01DX005 (ip), vehicle: saline with Tween-80
[14] = dose: 100.0 mg/kg/injection, schedule: Q01DX005 (ip), vehicle: saline with Tween-80
[15] = dose: 200.0 mg/kg/injection, schedule: Q01DX005 (ip), vehicle: saline with Tween-80
[16] = dose: 100.0 mg/kg/injection, schedule: Q01DX009 (ip), vehicle: saline with Tween-80
[17] = dose: 200.0 mg/kg/injection, schedule: Q01DX009 (ip), vehicle: saline with Tween-80
[18] = dose: 100.0 mg/kg/injection, schedule: Q04DX003 (ip), vehicle: saline
[19] = dose: 200.0 mg/kg/injection, schedule: Q04DX003 (ip), vehicle: saline
[20] = dose: 400.0 mg/kg/injection, schedule: Q04DX003 (ip), vehicle: saline

Nc1ccc(C(=O)O)cn1
T/C (dose: 20.0 mg/kg/injection, schedule: Q01DX009 (ip), vehicle: saline): 105 % of control
T/C (dose: 40.0 mg/kg/injection, schedule: Q01DX009 (ip), vehicle: saline): 98 % of control
T/C (dose: 80.0 mg/kg/injection, schedule: Q01DX009 (ip), vehicle: saline): 110 % of control

NC(Cn1ccc(=O)c(O)c1)C(=O)O (centres undefined)
T/C [1]: 95 % of control
T/C [2]: 100 % of control
T/C [3]: 108 % of control
T/C [4]: 122 % of control

O=C(CNC(=O)Nc1ccc(C2=NCCN2)cc1)Nc1ccc(C2=NCCN2)cc1
T/C [5]: 104 % of control
T/C [6]: 100 % of control
T/C (dose: 22.0 mg/kg/injection, schedule: Q01DX009 (ip), vehicle: saline with Tween-80): 100 % of control
T/C [7]: 120 % of control
T/C [8]: 118 % of control
T/C (dose: 33.0 mg/kg/injection, schedule: Q01DX009 (ip), vehicle: saline with Tween-80): 114 % of control
T/C (dose: 50.0 mg/kg/injection, schedule: Q01DX009 (ip), vehicle: saline with Tween-80): 166 % of control
T/C [9]: 109 % of control
T/C (dose: 75.0 mg/kg/injection, schedule: Q01DX009 (ip), vehicle: saline with Tween-80): 153 % of control

O=C(NC(Cc1ccccc1)C(=O)CCl)OCc1ccccc1 (centres undefined)
T/C (dose: 4.4 mg/kg/injection, schedule: Q01DX009 (ip), vehicle: saline with Tween-80): 112 % of control
T/C (dose: 6.6 mg/kg/injection, schedule: Q01DX009 (ip), vehicle: saline with Tween-80): 120 % of control
T/C (dose: 15.0 mg/kg/injection, schedule: Q01DX009 (ip), vehicle: saline with Tween-80): 112 % of control
T/C [7]: 105 % of control and 113 % of control
T/C (dose: 37.5 mg/kg/injection, schedule: Q01DX009 (ip), vehicle: saline with Tween-80): 86 % of control

O=NN(CCCl)C(=O)NC12CC3CC(CC(C3)C1)C2
T/C (dose: 5.0 mg/kg/injection, schedule: Q04DX003 (ip), vehicle: Klucel (hydroxypropylcellulose) (HPC)): 100 % of control
T/C (dose: 15.0 mg/kg/injection, schedule: Q04DX003 (ip), vehicle: Klucel (hydroxypropylcellulose) (HPC)): 95 % of control
T/C (dose: 30.0 mg/kg/injection, schedule: Q04DX003 (ip), vehicle: Klucel (hydroxypropylcellulose) (HPC)): 104 % of control
T/C (dose: 37.5 mg/kg/injection, schedule: Q04DX003 (ip), vehicle: Klucel (hydroxypropylcellulose) (HPC)): 166 % of control
T/C (dose: 75.0 mg/kg/injection, schedule: Q04DX003 (ip), vehicle: Klucel (hydroxypropylcellulose) (HPC)): 250 % of control
T/C [10]: 285 % of control
T/C (dose: 150.0 mg/kg/injection, schedule: Q04DX003 (ip), vehicle: Klucel (hydroxypropylcellulose) (HPC)): 250 % of control
T/C (dose: 175.0 mg/kg/injection, schedule: Q04DX003 (ip), vehicle: saline): 103 % of control
T/C [11]: 285 % of control
T/C [12]: 285 % of control

CC(N)(/C=C/c1ccccc1)C(=O)O (centres undefined)
T/C [13]: 101 % of control
T/C [14]: 97 % of control
T/C [15]: 113 % of control

CCCCCCC(=O)/C=C/c1ccccc1Cl
T/C [16]: 102 % of control
T/C [17]: 118 % of control
T/C (dose: 400.0 mg/kg/injection, schedule: Q01DX009 (ip), vehicle: saline with Tween-80): 93 % of control

O=C(OCCBr)c1ccccc1[N+](=O)[O-]
T/C [18]: 100 % of control
T/C [19]: 104 % of control
T/C [20]: 109 % of control

COc1ccc(C(=O)CCCCl)c(OC)c1
T/C [10]: 100 % of control
T/C [11]: 100 % of control
T/C [12]: 90 % of control

S=C1Cc2[nH]c(=S)sc(=S)c2C(=S)N1
T/C (dose: 6.25 mg/kg/injection, schedule: Q01DX009 (ip), vehicle: saline with Tween-80): 95 % of control
T/C [5]: 99 % of control
T/C [7]: 101 % of control

CCN1CC[N+](C)(CC)Cc2ccccc21 (centres undefined)
T/C [6]: 90 % of control
T/C [8]: 93 % of control

CC(=O)N(CC1CNc2nc(N)[nH]c(=O)c2N1C(=O)CCCCCCC(=O)N1c2c(nc(N)[nH]c2=O)NCC1CN(C(C)=O)c1ccc(C(=O)NC(CCC(=O)O)C(=O)O)cc1)c1ccc(C(=O)NC(CCC(=O)O)C(=O)O)cc1 (centres undefined)
T/C (dose: 50.0 mg/kg/injection, schedule: Q04DX003 (ip), vehicle: sodium bicarbonate): 103 % of control
T/C (dose: 100.0 mg/kg/injection, schedule: Q04DX003 (ip), vehicle: sodium bicarbonate): 91 % of control
T/C (dose: 200.0 mg/kg/injection, schedule: Q04DX003 (ip), vehicle: sodium bicarbonate): 112 % of control

COC(=O)c1cc([N+](=O)[O-])ccc1Cl
T/C [18]: 98 % of control
T/C [19]: 102 % of control
T/C [20]: 100 % of control

COCC(N)=O
T/C [2]: 106 % of control
T/C [3]: 97 % of control
T/C [4]: 113 % of control

CCOC(=O)C(C)(C)CSC(C)(C)C(=O)OCC
T/C [18]: 90 % of control
T/C [19]: 90 % of control
T/C [20]: 95 % of control

NC(=S)N/N=C/c1ncccc1F
T/C [8]: 110 % of control
T/C [9]: 119 % of control

Cc1ccc(N2CC(=O)N3CCCC(c4ccccc4)N3C(=O)C2)cc1 (centres undefined)
T/C [13]: 97 % of control
T/C [14]: 94 % of control
T/C [15]: 94 % of control

CCC12C=CCN3CCC4(c5cc(C(CN6CCCCC6)c6cn(C)c7ccccc67)c(OC)cc5N(C)C4C(O)(C(=O)OC)C1OC(C)=O)C32 (centres undefined)
T/C (dose: 4.0 mg/kg/injection, schedule: Q01DX009 (ip), vehicle: saline): 104 % of control
T/C (dose: 8.0 mg/kg/injection, schedule: Q01DX009 (ip), vehicle: saline): 98 % of control
T/C (dose: 16.0 mg/kg/injection, schedule: Q01DX009 (ip), vehicle: saline): 98 % of control
T/C (dose: 32.0 mg/kg/injection, schedule: Q01DX009 (ip), vehicle: saline): 93 % of control and 116 % of control

[NH-][n+]1c2c(nc3ccccc31)-c1cccc3cccc-2c13
T/C (dose: 12.5 mg/kg/injection, schedule: Q01DX001 (ip), vehicle: Klucel (hydroxypropylcellulose) (HPC)): 111 % of control
T/C (dose: 25.0 mg/kg/injection, schedule: Q01DX001 (ip), vehicle: Klucel (hydroxypropylcellulose) (HPC)): 100 % of control
T/C (dose: 50.0 mg/kg/injection, schedule: Q01DX001 (ip), vehicle: Klucel (hydroxypropylcellulose) (HPC)): 100 % of control

OC1C2CC3C1C3C2O (centres undefined)
T/C [10]: 86 % of control
T/C [11]: 100 % of control
T/C [12]: 104 % of control

Nc1nc(N)c(N=O)c(Nc2ccc(I)cc2)n1
T/C [16]: 108 % of control
T/C [10]: 112 % of control
T/C [17]: 95 % of control
T/C [11]: 108 % of control
T/C [12]: 100 % of control

N#CC(=C=[N-])[n+]1ccccc1
T/C (dose: 3.12 mg/kg/injection, schedule: Q01DX009 (ip), vehicle: Klucel (hydroxypropylcellulose) (HPC)): 110 % of control
T/C (dose: 6.25 mg/kg/injection, schedule: Q01DX009 (ip), vehicle: Klucel (hydroxypropylcellulose) (HPC)): 110 % of control
T/C (dose: 12.5 mg/kg/injection, schedule: Q01DX009 (ip), vehicle: Klucel (hydroxypropylcellulose) (HPC)): 100 % of control
T/C (dose: 18.0 mg/kg/injection, schedule: Q01DX009 (ip), vehicle: Klucel (hydroxypropylcellulose) (HPC)): 100 % of control
T/C (dose: 28.0 mg/kg/injection, schedule: Q01DX009 (ip), vehicle: Klucel (hydroxypropylcellulose) (HPC)): 115 % of control

Clc1ncnc2c1ncn2C1CCCCO1 (centres undefined)
T/C (dose: 25.0 mg/kg/injection, schedule: Q01DX009 (ip), vehicle: saline): 90 % of control
T/C [1]: 100 % of control
T/C (dose: 100.0 mg/kg/injection, schedule: Q01DX009 (ip), vehicle: other): 92 % of control
T/C [2]: 95 % of control
T/C (dose: 100.0 mg/kg/injection, schedule: Q04DX003 (ip), vehicle: other): 108 % of control
T/C (dose: 200.0 mg/kg/injection, schedule: Q04DX003 (ip), vehicle: other): 108 % of control
T/C (dose: 400.0 mg/kg/injection, schedule: Q01DX009 (ip), vehicle: other): 115 % of control
T/C (dose: 400.0 mg/kg/injection, schedule: Q04DX003 (ip), vehicle: other): 108 % of control

CC(=O)OCc1ccc(-n2c(C(F)(F)F)nc3nc(Cl)c(Cl)nc32)o1
T/C [1]: 100 % of control
T/C (dose: 50.0 mg/kg/injection, schedule: Q04DX003 (ip), vehicle: saline): 108 % of control
T/C [2]: 107 % of control
T/C [18]: 103 % of control
T/C [19]: 101 % of control
T/C [20]: 100 % of control
